Measured values as given in patent US20200131476A1, “Differentiation Of Immunocytes Using Pluripotent Stem Cells” (Korea Center For Disease Control And Prevention, priority 2017, published 2020).

Test system: pluripotent stem cells
Experiment: Differentiation of pluripotent stem cells into CD34+CD45+ hematopoietic stem cells (FACS)
Assay type: cell-based
Description: 1) Pluripotent stem cells were adapted to a matrigel-coated dish and a mTeSR1 medium for 3 weeks, and then other colonies except for 5 colonies in 35 pi dish were removed by pipetting. This is a process for providing space for the proliferation of differentiated cells in the future. At this time, when vitronectin is used as a coating material or mTeSR8 is used as a medium, the differentiation of hematopoietic stem cells or macrophages can be induced.
2) The medium for culturing the stem cells used in 1) above was replaced with APEL medium. […] The differentiation into mesodermal cells was induced rapidly by treating with BMP4 at a high concentration (100 ng/ml) for 2 days and then sequentially at a low concentration (20 ng/ml) for 2 days.
In addition, the efficiency of differentiation of hematopoietic stem cells can be increased by treating with the CDDO methyl ester compound together with BMP4 for 4 days. […]
CD34+ and CD45+ are markers specifically expressed in hematopoietic stem cells. […] In order to confirm this, the amount of expression of the markers specifically expressed in hematopoietic stem cells was measured.
The differentiated cells were monolayered and reacted with the antibodies CD34 and CD45 labeled with fluorescence. […]

COC(=O)[C@]12CCC(C)(C)C[C@H]1[C@H]1C(=O)C=C3[C@@]4(C)C=C(C#N)C(=O)C(C)(C)[C@@H]4CC[C@@]3(C)[C@]1(C)CC2 [CDDO methyl ester, 2-cyano-3,12-dioxooleana-1,9(11)-dien-28-oic acid methyl ester]
efficiency of differentiation of hematopoietic stem cells, increase (50 nM added together with BMP4 for 4 days, versus no CDDO methyl ester, FIG. 4): about 3 times | yield of hematopoietic stem cells (further treating with the compound in the BMP4 treatment step): improved by three times or more
